Test results published in patent EP0074599A1, “5,6-cis-Carbapenem derivatives, their production and use” (Takeda Chemical Industries, Ltd., priority 1981, dated 1983).

How the values were obtained:
Assay in all cases: Minimal Inhibitory Concentration (MIC), agar dilution method
Type in all cases: cell-based
Parameters in all cases: unit not given here
[1] = system: A. calcoaceticus IFO 13006; conditions: Test Microorganism (16) A. calcoaceticus IFO 13006; Trypticase soy agar, 37°C for 18 hours
Description: (§1) Minimal Inhibitory Concentration (MIC)
(§2) The Minimal Inhibitory Concentrations of the tested compounds were determined according to the agar dilution method. Namely, 1.0 ml each of aqueous solution of the tested compounds diluted by serial dilutions was poured into test petri dishes, subsequently 9.0 ml each of Trypticase soy agar was poured into the dishes and mixed. On each of the mixed agar plates, one loopful of bacterial suspension (about 10^8 CFU/ml) of test microorganism was streaked.
(§3) After the incubation at 37°C for 18 hours, the lowest concentration of the tested compounds in the medium which caused apparently complete inhibition of growth of the test microorganism was taken to be minimal inhibitory concentration.
(§4) • (1) S. aureus FDA 209P • (2) S. aureus 308 A-1 • (3) S. aureus 1840 • (4) E. coli NIHJ JC-2 • (5) E. coli 0-111 • (6) E. coli T-7 • (7) C. freundii IFO 12681 • (8) K. pneumoniae DT • (9) E. cloacae IFO 12937 • (10) S. marcescens IFO 12648 • (11) P. vulgaris IFO 3988 • (12) P.-mirabilis IFO 3849 • (13) P. morganii IFO 3168 • (14) P. aeruginosa IFO 3455 • (15) P. aeruginosa U 31 • (16) A. calcoaceticus IFO 13006

C. freundii IFO 12681 = conditions: Test Microorganism (7) C. freundii IFO 12681; Trypticase soy agar, 37°C for 18 hours
Description: as §1, §2, §3, §4

E. cloacae IFO 12937 = conditions: Test Microorganism (9) E. cloacae IFO 12937; Trypticase soy agar, 37°C for 18 hours
Description: as §1, §2, §3, §4

E. coli 0-111 = conditions: Test Microorganism (5) E. coli 0-111; Trypticase soy agar, 37°C for 18 hours
Description: as §1, §2, §3, §4

E. coli NIHJ JC-2 = conditions: Test Microorganism (4) E. coli NIHJ JC-2; Trypticase soy agar, 37°C for 18 hours
Description: as §1, §2, §3, §4

E. coli T-7 = conditions: Test Microorganism (6) E. coli T-7; Trypticase soy agar, 37°C for 18 hours
Description: as §1, §2, §3, §4

K. pneumoniae DT = conditions: Test Microorganism (8) K. pneumoniae DT; Trypticase soy agar, 37°C for 18 hours
Description: as §1, §2, §3, §4

P. aeruginosa IFO 3455 = conditions: Test Microorganism (14) P. aeruginosa IFO 3455; Trypticase soy agar, 37°C for 18 hours
Description: as §1, §2, §3, §4

P. aeruginosa U 31 = conditions: Test Microorganism (15) P. aeruginosa U 31; Trypticase soy agar, 37°C for 18 hours
Description: as §1, §2, §3, §4

P. morganii IFO 3168 = conditions: Test Microorganism (13) P. morganii IFO 3168; Trypticase soy agar, 37°C for 18 hours
Description: as §1, §2, §3, §4

P. vulgaris IFO 3988 = conditions: Test Microorganism (11) P. vulgaris IFO 3988; Trypticase soy agar, 37°C for 18 hours
Description: as §1, §2, §3, §4

P.-mirabilis IFO 3849 = conditions: Test Microorganism (12) P.-mirabilis IFO 3849; Trypticase soy agar, 37°C for 18 hours
Description: as §1, §2, §3, §4

S. aureus 1840 = conditions: Test Microorganism (3) S. aureus 1840; Trypticase soy agar, 37°C for 18 hours
Description: as §1, §2, §3, §4

S. aureus 308 A-1 = conditions: Test Microorganism (2) S. aureus 308 A-1; Trypticase soy agar, 37°C for 18 hours
Description: as §1, §2, §3, §4

S. aureus FDA 209P = conditions: Test Microorganism (1) S. aureus FDA 209P; Trypticase soy agar, 37°C for 18 hours
Description: as §1, §2, §3, §4

S. marcescens IFO 12648 = conditions: Test Microorganism (10) S. marcescens IFO 12648; Trypticase soy agar, 37°C for 18 hours
Description: as §1, §2, §3, §4

| Compound | Minimal Inhibitory Concentration (MIC) [1] | Minimal Inhibitory Concentration (MIC) (C. freundii IFO 12681) | Minimal Inhibitory Concentration (MIC) (E. cloacae IFO 12937) | Minimal Inhibitory Concentration (MIC) (E. coli 0-111) | Minimal Inhibitory Concentration (MIC) (E. coli NIHJ JC-2) | Minimal Inhibitory Concentration (MIC) (E. coli T-7) | Minimal Inhibitory Concentration (MIC) (K. pneumoniae DT) | Minimal Inhibitory Concentration (MIC) (P. aeruginosa IFO 3455) | Minimal Inhibitory Concentration (MIC) (P. aeruginosa U 31) | Minimal Inhibitory Concentration (MIC) (P. morganii IFO 3168) | Minimal Inhibitory Concentration (MIC) (P. vulgaris IFO 3988) | Minimal Inhibitory Concentration (MIC) (P.-mirabilis IFO 3849) | Minimal Inhibitory Concentration (MIC) (S. aureus 1840) | Minimal Inhibitory Concentration (MIC) (S. aureus 308 A-1) | Minimal Inhibitory Concentration (MIC) (S. aureus FDA 209P) | Minimal Inhibitory Concentration (MIC) (S. marcescens IFO 12648) |
| --- | --- | --- | --- | --- | --- | --- | --- | --- | --- | --- | --- | --- | --- | --- | --- | --- |
| CC(C)(O)[C@@H]1C(=O)N2C(C(=O)O)=C(SCCN)C[C@H]12 [Example 2] | 3.13 | 3.13 | 12.5 | 0.39 | 1.56 | 1.56 | 12.5 | 6.25 | 25 | 50 | 50 | 50 | 1.56 | 0.78 | 0.39 | 12.5 |
| CC(C)(O)[C@@H]1C(=O)N2C(C(=O)O)=C(Sc3cccnn3)C[C@H]12 [Example 20, Sodium 5,6-cis-3-(3-pyridazinylthio)-6-(l-hydroxy-l-methylethyl)-7-oxo-1-azabicyclo[3.2.0]hept-2-ene-2-carboxylate] | 12.5 | 0.78 | 1.56 | 0.2 | 0.78 | 3.13 | 0.78 | 50 | >100 | 3.13 | 3.13 | 3.13 | 0.78 | 0.39 | 0.39 | 1.56 |
| CN(C)CCSC1=C(C(=O)O)N2C(=O)[C@@H](C(C)(C)O)[C@H]2C1 [Example 26, 5,6-cis-3-[2-(N,N-Dimethylaminoethyl)thio]-6-(1-hydroxy-1-methylethyl)-7-oxo-1-azabicyclo[3.2.0]hept-2-ene-2-carboxylic acid] | 12.5 | 3.13 | 6.25 | 0.39 | 0.78 | 0.78 | 25 | 25 | 50 | 50 | 50 | 50 | 0.78 | 0.39 | 0.39 | 6.25 |
| CC(C)(O)[C@@H]1C(=O)N2C(C(=O)O)=C(SCCCN)C[C@H]12 [Example 33, 5,6-cis-3-(3-Aminopropylthio)-6-(l-hydroxy-l-methylethyl)-7-oxo-l-azabicyclo[3.2.0]hept-2-ene-2-carboxylic acid] | 3.13 | 3.13 | 6.25 | 0.39 | 0.39 | 0.78 | 6.25 | 12.5 | 50 | 50 | 50 | 50 | 0.78 | 0.78 | 0.78 | 6.25 |
| CC(C)(O)[C@@H]1C(=O)N2C(C(=O)O)=C(SCCNC=N)C[C@H]12 [Example 46, 5,6-cis-3-(2-formimidoylaminoethylthio)-6-(1-hydroxy-1-methylethyl)-7-oxo-l-azabicyclo[3.2.0]hept-2-ene-2-carboxylic acid] | 6.25 | 1.56 | 6.25 | 0.39 | 0.39 | 0.78 | 6.25 | 3.13 | 6.25 | 25 | 25 | 25 | 0.78 | 0.78 | 0.39 | 3.13 |
| CC(C)(O)[C@@H]1C(=O)N2C(C(=O)O)=C(SCCCNC=N)C[C@H]12 [Example 47, 5,6-cis-3-(3-formimidoylaminopropylthio)-6-(1-hydroxy-1-methylethyl)-7-oxo-1-azabicyclo[3.2.0]hept-2-ene-2-carboxylic - acid] | 6.25 | 1.56 | 6.25 | 0.39 | 0.39 | 0.78 | 6.25 | 3.13 | 12.5 | 25 | 25 | 25 | 0.78 | 0.39 | 0.39 | 3.13 |
| CC(C)(O)[C@@H]1C(=O)N2C(C(=O)O)=C(SCCN3CCCC3)C[C@H]12 [Example 49] | 12.5 | 3.13 | 12.5 | 0.39 | 0.78 | 0.78 | 6.25 | 12.5 | 50 | 50 | 100 | 50 | 0.78 | 0.39 | 0.2 | 6.25 |
| CC(C)(O)[C@@H]1C(=O)N2C(C(=O)O)=C(SCCN3CCCCC3)C[C@H]12 [Example 51, 5,6-cis-3-(2-Piperidinoethylthio)-6-(1-hydroxy-1-methylethyl)-7-oxo-1-azabicyclo[3.2.0]hept-2-ene-carboxylic acid] | 25 | 3.13 | 6.25 | 0.39 | 0.78 | 0.78 | 6.25 | 50 | >100 | 25 | 25 | 25 | 0.78 | 0.39 | 0.2 | 6.25 |
